Data on 2 compounds can be found in article PMC7504051, “Ilimaquinone Induces the Apoptotic Cell Death of Cancer Cells by Reducing Pyruvate Dehydrogenase Kinase 1 Activity” (International Journal of Molecular Sciences, 2020).

As usually defined, the Kd is a measure of binding affinity in units of concentration. Low values mean a tighter complex, high ones a looser complex.

SMILES strings stand for the structures.

Assay [1] has as its target T1, pyruvate dehydrogenase kinase 1 (PDK1) (Homo sapiens, UniProt Q15118).
T1 construct: His-tagged PDK1
As to the kind of experiment: isothermal titration calorimetry (MicroCal AutoITC200); supported by (α-32P)ATP displacement from purified PDK1. Format: binding.

Assay [2] addresses T1, pyruvate dehydrogenase kinase 1 (PDK1). The assay can be described thus: radiolabelled (α-32P)ATP binding to bead-bound purified PDK1, scintillation counting, unlabelled ATP as competitor.

T1 sequence (Q15118 29-436): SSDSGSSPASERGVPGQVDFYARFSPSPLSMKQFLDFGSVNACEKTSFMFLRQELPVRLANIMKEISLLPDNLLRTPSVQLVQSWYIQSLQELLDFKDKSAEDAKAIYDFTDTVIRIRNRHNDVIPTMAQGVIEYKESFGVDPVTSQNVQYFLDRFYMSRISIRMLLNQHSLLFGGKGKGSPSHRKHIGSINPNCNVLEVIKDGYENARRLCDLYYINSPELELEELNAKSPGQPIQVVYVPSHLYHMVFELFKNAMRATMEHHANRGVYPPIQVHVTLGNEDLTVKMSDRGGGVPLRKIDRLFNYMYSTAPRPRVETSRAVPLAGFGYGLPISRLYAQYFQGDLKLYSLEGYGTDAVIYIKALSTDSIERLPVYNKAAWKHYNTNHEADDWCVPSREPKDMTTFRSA

Consider `C=C1CCC[C@H]2[C@](C)(CC3=C(O)C(=O)C=C(OC)C3=O)[C@@H](C)CC[C@]12C` [IQ, ilimaquinone], for which the Kd in assay [1] turned out to be 14.6 µM.
Regarding `Nc1ncnc2c1ncn2[C@@H]1O[C@H](COP(=O)(O)OP(=O)(O)OP(=O)(O)O)[C@@H](O)[C@H]1O` [ATP], in assay [2], the “radiolabelled (α-32P)ATP binding to bead-bound purified PDK1, scintillation coun” value is “The binding of ATP to PDK1 in the presence of IQ was determined using α^32-labeled ATP”.
